Literature values as cited in patent US20260138960A1, “A PROCESS FOR THE PREPARATION OF CRYSTALLINE FORM OF TAFAMIDIS” (BIOPHORE INDIA PHARMACEUTICALS PVT. LTD, priority 2022, published 2026).

Conditions: poorly soluble, but permeate biological membranes well

| SMILES | biopharmaceutical classification system (BCS) class |
| --- | --- |
| O=C(O)c1ccc2nc(-c3cc(Cl)cc(Cl)c3)oc2c1 [Tafamidis, 2-(3,5-dichlorophenyl)-1,3-benzoxazole-6-carboxylic acid] | class II |
| CNC[C@H](O)[C@@H](O)[C@H](O)[C@H](O)CO.O=C(O)c1ccc2nc(-c3cc(Cl)cc(Cl)c3)oc2c1 [Tafamidis meglumine] | class II |
